Results published in patent US20260274804A1, “PHENOLIC COMPOUNDS BLOCKING Nav 1.7 AND/OR Nav 1.8, PROCESSES FOR THE PREPARATION THEREOF, COMPOSITIONS, USES, METHODS OF TREATMENT USING SAME AND KITS” (Eurofarma Laboratórios S.A., priority 2023, published 2026).

Key:
[1] = molecular target: T1, human sodium channels Nav 1.8 (Homo sapiens, UniProt Q9Y5Y9); experiment: Automated whole-cell voltage-clamp (ScreenPatch 384P) on CHO cells stably expressing Nav 1.8; type: cell-based; conditions: inactivation step -40 mV 8 s, test pulse 10 mV, room temperature, exposure at least five minutes, read-out: Nav1.8 IC50
T1 construct: expressed in transfected cells
Experimental: (§1) Biological assays were performed on Chinese hamster ovary (CHO) cells that express human sodium channels Nav 1.8 or Nav 1.7 in a stable manner.
(§2) The experimental protocol voltage-clamp using the whole cell configuration was established on the automated ScreenPatch® 384P platform (SP384PE, Nanion Technologies, Livingston, NJ) and the results were recorded with a Nanion 384-well Patch Clamp chip (NPC) (Nanion Technologies, Livingston, NJ).
(§3) Formula I compounds were diluted in eight concentrations in the extracellular solution composed of physiological saline solution, buffered with HEPES (mM): NaCl, 137; KCl, 4; CaCl2, 3.8; MgCl2, 1; HEPES, 10; Glucose, 10; pH 7.4. The […], 50; CsF, 90; MgCl2, 5; EGTA, 5; HEPES, 10; pH 7.2. The duration of exposure of each compound with cells expressing Nav 1.7 or Nav 1.8 was at least five minutes, and the assays were performed at room temperature.
(§4) The measurements of the sodium currents of Nav 1.8 and Nav 1.7 were obtained using the voltage protocol described below.
(§5) A holding voltage of −100 mV was established followed by an inactivation voltage step at −40 mV for 8 seconds, followed by a step of −100 mV for 20 ms, followed by a 20 ms step for 10 mV for Nav 1.8 or 0 mV for Nav 1.7 (TP1A) before returning to the holding voltage of −100 mV.
(§6) The protocol was repeated at a frequency of 0.05 Hz and the amplitude of the current was quantified throughout the recording of the TP1A phase. The variation in the peak current amplitude was evaluated according to the Formula described below, after exposing the cells expressing the channels to each concentration of the different compounds:
(§7) [formula] • wherein […] and ITP1A,molecule represent the peaks of sodium current input into TP1A before exposure to the compound and in the presence of the compound, respectively.
(§8) The decrease in the peak current amplitude, after the exposure of the cells to the compounds, was used to calculate the percentage of relative blockage of the channels in relation to the positive control according to the Formula below:
(§9) [formula] • where % V and % CP represent the means of the values of current inhibition with a vehicle (DMSO) and positive controls, respectively. The sodium currents of the positive control were considered as 100%:
(§10) [formula] • wherein [Test] represents the concentration of the molecule evaluated, IC50 is the concentration of the compound that generates half of the maximum inhibition, N is Hill's coefficient, and % Blockage' is the percentage of sodium channel current (Nav 1.8 and Nav 1.7) inhibited at each concentration of the molecule evaluated. Data were obtained by nonlinear regression (nonlinear least squares) with XLfit for Excel (Microsoft, Redmond, WA).
(§11) The compounds were tested in at least one assay to obtain the value of CI50. For compounds that were tested in two or more assays, the results are described as the means of the CI50 values.

[2] = molecular target: T2, human sodium channels Nav 1.7 (Homo sapiens, UniProt Q15858); experiment: Automated whole-cell voltage-clamp (ScreenPatch 384P) on CHO cells stably expressing Nav 1.7; type: cell-based; conditions: inactivation step -40 mV 8 s, test pulse 0 mV, room temperature, exposure at least five minutes, read-out: Nav1.7 IC50
T2 construct: expressed in transfected cells
Experimental: as §1, §2, §3, §4, §5, §6, §7, §8, §9, §10, §11

T1 sequence (Q9Y5Y9 whole entry): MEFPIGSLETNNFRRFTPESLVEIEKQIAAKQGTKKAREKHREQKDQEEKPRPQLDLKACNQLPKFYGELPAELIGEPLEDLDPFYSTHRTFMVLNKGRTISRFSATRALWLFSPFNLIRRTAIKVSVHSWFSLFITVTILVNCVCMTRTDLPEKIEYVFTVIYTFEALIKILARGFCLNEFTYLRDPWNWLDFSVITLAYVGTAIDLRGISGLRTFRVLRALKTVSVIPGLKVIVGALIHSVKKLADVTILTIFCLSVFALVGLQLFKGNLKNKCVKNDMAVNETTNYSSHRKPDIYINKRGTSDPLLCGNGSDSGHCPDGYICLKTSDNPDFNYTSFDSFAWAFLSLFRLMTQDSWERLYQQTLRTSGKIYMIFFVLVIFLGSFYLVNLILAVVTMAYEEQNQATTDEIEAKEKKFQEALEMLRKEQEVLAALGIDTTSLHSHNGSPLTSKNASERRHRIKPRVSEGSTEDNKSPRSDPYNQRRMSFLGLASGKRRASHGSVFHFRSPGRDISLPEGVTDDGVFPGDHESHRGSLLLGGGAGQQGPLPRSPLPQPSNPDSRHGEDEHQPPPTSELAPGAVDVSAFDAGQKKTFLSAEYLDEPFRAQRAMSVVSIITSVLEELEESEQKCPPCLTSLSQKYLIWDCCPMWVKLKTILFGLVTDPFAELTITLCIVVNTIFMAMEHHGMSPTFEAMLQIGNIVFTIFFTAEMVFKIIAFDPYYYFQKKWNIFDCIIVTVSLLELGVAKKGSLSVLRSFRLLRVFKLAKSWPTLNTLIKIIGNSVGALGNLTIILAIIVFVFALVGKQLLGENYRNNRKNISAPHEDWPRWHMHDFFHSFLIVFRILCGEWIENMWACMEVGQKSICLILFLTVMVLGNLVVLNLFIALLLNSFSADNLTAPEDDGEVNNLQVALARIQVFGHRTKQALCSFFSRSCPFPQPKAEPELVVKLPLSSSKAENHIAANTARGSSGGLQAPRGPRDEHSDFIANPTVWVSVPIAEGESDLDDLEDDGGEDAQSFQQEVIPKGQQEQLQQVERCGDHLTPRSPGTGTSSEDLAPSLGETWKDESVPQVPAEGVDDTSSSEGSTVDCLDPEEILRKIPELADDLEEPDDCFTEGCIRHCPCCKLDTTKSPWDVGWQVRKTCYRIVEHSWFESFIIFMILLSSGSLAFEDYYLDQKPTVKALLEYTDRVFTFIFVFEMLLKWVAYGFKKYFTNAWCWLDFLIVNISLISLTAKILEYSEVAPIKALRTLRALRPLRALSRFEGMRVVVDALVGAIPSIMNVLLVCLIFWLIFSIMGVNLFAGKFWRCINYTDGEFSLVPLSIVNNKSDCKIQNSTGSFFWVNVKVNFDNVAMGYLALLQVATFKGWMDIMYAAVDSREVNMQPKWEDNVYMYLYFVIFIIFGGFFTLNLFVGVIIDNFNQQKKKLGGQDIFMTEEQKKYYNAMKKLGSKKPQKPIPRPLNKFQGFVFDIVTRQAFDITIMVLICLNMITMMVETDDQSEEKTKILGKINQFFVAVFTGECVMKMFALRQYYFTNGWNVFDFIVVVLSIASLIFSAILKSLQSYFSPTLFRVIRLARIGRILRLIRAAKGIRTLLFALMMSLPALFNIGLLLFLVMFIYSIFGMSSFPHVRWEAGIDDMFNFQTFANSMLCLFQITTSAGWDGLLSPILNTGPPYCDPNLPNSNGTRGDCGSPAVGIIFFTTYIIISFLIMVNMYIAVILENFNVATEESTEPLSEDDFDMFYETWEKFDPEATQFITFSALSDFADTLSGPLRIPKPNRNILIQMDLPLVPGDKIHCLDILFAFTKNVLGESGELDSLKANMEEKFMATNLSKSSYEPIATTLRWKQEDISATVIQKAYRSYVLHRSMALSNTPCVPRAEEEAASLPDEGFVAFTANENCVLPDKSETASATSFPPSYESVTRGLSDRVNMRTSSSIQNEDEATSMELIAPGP
T2 sequence (Q15858 whole entry): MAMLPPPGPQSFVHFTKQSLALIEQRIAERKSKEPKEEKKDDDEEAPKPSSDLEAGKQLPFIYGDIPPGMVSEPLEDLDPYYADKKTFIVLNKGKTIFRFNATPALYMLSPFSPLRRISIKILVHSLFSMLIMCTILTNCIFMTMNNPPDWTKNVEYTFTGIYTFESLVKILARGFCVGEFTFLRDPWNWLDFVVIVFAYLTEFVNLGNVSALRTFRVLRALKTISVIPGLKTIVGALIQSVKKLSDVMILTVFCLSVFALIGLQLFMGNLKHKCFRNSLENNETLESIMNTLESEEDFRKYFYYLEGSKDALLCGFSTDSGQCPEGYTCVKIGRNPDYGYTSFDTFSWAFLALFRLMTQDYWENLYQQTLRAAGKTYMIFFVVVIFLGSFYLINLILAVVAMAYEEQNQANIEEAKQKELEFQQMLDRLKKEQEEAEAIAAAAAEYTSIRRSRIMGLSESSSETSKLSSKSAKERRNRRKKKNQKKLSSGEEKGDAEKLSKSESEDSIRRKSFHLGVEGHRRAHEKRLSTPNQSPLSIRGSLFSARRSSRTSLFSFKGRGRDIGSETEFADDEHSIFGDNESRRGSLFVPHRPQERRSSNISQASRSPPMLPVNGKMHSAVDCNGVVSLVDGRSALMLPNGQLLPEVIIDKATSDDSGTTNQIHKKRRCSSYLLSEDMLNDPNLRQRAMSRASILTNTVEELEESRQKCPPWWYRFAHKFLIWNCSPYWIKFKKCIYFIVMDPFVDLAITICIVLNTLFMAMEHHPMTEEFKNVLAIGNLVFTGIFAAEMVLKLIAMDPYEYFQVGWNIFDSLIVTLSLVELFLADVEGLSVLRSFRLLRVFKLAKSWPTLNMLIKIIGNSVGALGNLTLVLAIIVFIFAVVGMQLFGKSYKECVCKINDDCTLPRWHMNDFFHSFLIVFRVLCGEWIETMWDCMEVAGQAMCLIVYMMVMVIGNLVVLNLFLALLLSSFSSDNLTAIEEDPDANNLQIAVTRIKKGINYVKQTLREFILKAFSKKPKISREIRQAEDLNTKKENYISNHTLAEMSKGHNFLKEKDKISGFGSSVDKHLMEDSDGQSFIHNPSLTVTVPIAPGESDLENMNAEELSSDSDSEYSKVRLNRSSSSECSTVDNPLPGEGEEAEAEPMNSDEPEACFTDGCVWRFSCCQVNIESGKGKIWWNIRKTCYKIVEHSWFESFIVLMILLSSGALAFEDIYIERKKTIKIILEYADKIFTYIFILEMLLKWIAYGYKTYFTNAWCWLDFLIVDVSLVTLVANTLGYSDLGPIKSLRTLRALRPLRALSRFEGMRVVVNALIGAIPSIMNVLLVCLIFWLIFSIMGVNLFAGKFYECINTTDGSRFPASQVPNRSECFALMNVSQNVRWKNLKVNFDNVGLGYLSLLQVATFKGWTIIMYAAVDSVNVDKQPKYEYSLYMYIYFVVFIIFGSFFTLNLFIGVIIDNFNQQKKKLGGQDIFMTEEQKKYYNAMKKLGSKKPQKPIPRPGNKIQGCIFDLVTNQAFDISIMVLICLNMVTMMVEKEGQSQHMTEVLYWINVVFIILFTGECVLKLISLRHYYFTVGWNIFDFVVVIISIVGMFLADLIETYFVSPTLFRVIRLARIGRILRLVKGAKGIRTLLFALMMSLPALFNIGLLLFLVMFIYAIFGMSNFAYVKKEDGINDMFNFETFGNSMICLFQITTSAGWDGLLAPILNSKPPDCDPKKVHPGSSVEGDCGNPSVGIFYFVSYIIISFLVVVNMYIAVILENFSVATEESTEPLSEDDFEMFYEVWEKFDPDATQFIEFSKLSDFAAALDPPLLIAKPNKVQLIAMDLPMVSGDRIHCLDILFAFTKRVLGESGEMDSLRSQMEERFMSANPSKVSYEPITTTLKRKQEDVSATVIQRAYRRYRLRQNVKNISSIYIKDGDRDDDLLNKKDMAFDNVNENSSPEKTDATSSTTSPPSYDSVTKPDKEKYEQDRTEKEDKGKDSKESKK

Row | SMILES | IC50 [1] | IC50 [2]
1 | COc1cc(/C=N/NC(=O)c2cncc(-c3ccc(O)cc3)n2)cc(OC)c1 [Compound 1, (E)-N′-(3,5-dimethoxybenzylidene)-6-(4-hydroxyphenyl)pyrazine-2-carbohydrazide] | > 1000 nM | > 1000 nM
2 | Cc1cc(C)cc(/C=N/NC(=O)c2cncc(-c3ccc(O)cc3)n2)c1 [Compound 2, (E)-N′-(3,5-dimethylbenzylidene)-6-(4-hydroxyphenyl)pyrazine-2-carbohydrazide] | > 1000 nM | > 1000 nM
3 | COc1ccc(F)c(/C=N/NC(=O)c2cncc(-c3ccc(O)cc3)n2)c1 [Compound 3, (E)-N′-(2-fluoro-5-methoxybenzylidene)-6-(4-hydroxyphenyl)pyrazine-2-carbohydrazide] | > 1000 nM | > 1000 nM
4 | O=C(N/N=C/c1cncc(O)c1)c1cncc(-c2ccc(O)cc2)n1 [Compound 4, (E)-6-(4-hydroxyphenyl)-N′-((5-hydroxypyridine-3-yl)methylene)pyrazine-2-carbohydrazide] | > 1000 nM | > 1000 nM
5 | COc1cc(/C=N/NC(=O)c2cncc(-c3ccc(OC)cc3O)n2)cc(OC)c1 [Compound 5, (E)-N′-(3,5-dimethoxybenzylidene)-6-(2-hydroxy-4-methoxyphenyl)pyrazine-2-carbohydrazide] | < 500 nM | > 1000 nM
6 | COc1cc(/C=N/NC(=O)c2cncc(-c3ccc(OC)c(O)c3)n2)cc(OC)c1 [Compound 6, (E)-N′-(3,5-dimethoxybenzylidene)-6-(3-hydroxy-4-methoxyphenyl)pyrazine-2-carbohydrazide] | > 1000 nM | > 1000 nM
7 | COc1ccc(-c2cncc(C(=O)N/N=C/c3cc(C)cc(C)c3)n2)c(O)c1 [Compound 7, (E)-N′-(3,5-dimethylbenzylidene)-6-(2-hydroxy-4-methoxyphenyl)pyrazine-2-carbohydrazide] | < 500 nM | > 1000 nM
8 | CCOc1ccc(-c2cncc(C(=O)N/N=C/c3cc(OC)ccc3F)n2)c(O)c1 [Compound 8, (E)-6-(4-ethoxy-2-hydroxyphenyl)-N′-(2-fluoro-5-methoxybenzylidene)pyrazine-2-carbohydrazide] | 500 to 1000 nM | > 1000 nM
9 | CCOc1ccc(-c2cncc(C(=O)N/N=C/c3cc(OC)cnc3F)n2)c(O)c1 [Compound 9, (E)-6-(4-ethoxy-2-hydroxyphenyl)-N′-((2-fluoro-5-methoxypyridine-3-yl)methylene)pyrazine-2-carbohydrazide] | < 500 nM | > 1000 nM
10 | COc1ccc(-c2nc(C(=O)N/N=C/c3cc(OC)cc(OC)c3)cnc2O)cc1 [Compound 12, (E)-N′-(3,5-dimethoxybenzylidene)-5-hydroxy-6-(4-methoxyphenyl)pyrazine-2-carbohydrazide] | > 1000 nM | > 1000 nM
11 | COc1ccc(-c2nc(C(=O)N/N=C/c3cc(C)cc(C)c3)cnc2O)cc1 [Compound 13, (E)-N′-(3,5-dimethylbenzylidene)-5-hydroxy-6-(4-methoxyphenyl)pyrazine-2-carbohydrazide] | > 1000 nM | > 1000 nM
12 | COc1ccc(-c2cnc(O)c(C(=O)N/N=C/c3cc(OC)cc(OC)c3)n2)cc1 [Compound 14, (E)-N′-(3,5-dimethoxybenzylidene)-3-hydroxy-6-(4-methoxyphenyl)pyrazine-2-carbohydrazide] | > 1000 nM | > 1000 nM
13 | COc1ccc(-c2cnc(O)c(C(=O)N/N=C/c3cc(C)cc(C)c3)n2)cc1 [Compound 15, (E)-N′-(3,5-dimethylbenzylidene)-3-hydroxy-6-(4-methoxyphenyl)pyrazine-2-carbohydrazide] | > 1000 nM | > 1000 nM
14 | CCOc1ccc(-c2nc(C(=O)N/N=C/c3cc(OC)cnc3F)cnc2O)cc1 [Compound 16, (E)-6-(4-ethoxyphenyl)-N′-((2-fluoro-5-methoxypyridine-3-yl)methylene)-5-hydroxypyrazine-2-carbohydrazide] | > 1000 nM | > 1000 nM
15 | CCOc1ccc(-c2nc(C(=O)N/N=C/c3cccc(OC)c3)cnc2O)c(F)c1 [Compound 18, (E)-6-(4-ethoxy-2-fluorophenyl)-5-hydroxy-N′-(3-methoxybenzylidene)pyrazine-2-carbohydrazide] | > 1000 nM | > 1000 nM
16 | CCOc1ccc(-c2cnc(O)c(C(=O)N/N=C/c3cccc(OC)c3)n2)c(F)c1 [Compound 19, (E)-6-(4-ethoxy-2-fluorophenyl)-3-hydroxy-N′-(3-methoxybenzylidene)pyrazine-2-carbohydrazide] | > 1000 nM | > 1000 nM
17 | COc1ccc(-c2cncc(C(=O)N/N=C/c3cc(O)cc(O)c3)n2)cc1 [Compound 20, (E)-N′-(3,5-dihydroxybenzylidene)-6-(4-methoxyphenyl)pyrazine-2-carbohydrazide] | > 1000 nM | > 1000 nM
18 | COc1ccc(-c2cncc(C(=O)N/N=C/c3cc(O)cc(OC)c3)n2)cc1 [Compound 21, (E)-N′-(3-hydroxy-5-methoxybenzylidene)-6-(4-methoxyphenyl)pyrazine-2-carbohydrazide] | > 1000 nM | > 1000 nM
19 | COc1ccc(-c2cncc(C(=O)N/N=C/c3ccc(O)cc3)n2)cc1 [Compound 22, (E)-N′-(4-hydroxybenzylidene)-6-(4-methoxyphenyl)pyrazine-2-carbohydrazide] | > 1000 nM | > 1000 nM
20 | COc1ccc(-c2cncc(C(=O)N/N=C/c3cccc(O)c3)n2)cc1 [Compound 23, (E)-N′-(3-hydroxybenzylidene)-6-(4-methoxyphenyl)pyrazine-2-carbohydrazide] | > 1000 nM | > 1000 nM
21 | COc1ccc(-c2cncc(C(=O)N/N=C/c3ccccc3O)n2)cc1 [Compound 24, (E)-N′-(2-hydroxybenzylidene)-6-(4-methoxyphenyl)pyrazine-2-carbohydrazide] | > 1000 nM | > 1000 nM
22 | COc1ccc(-c2cncc(C(=O)N/N=C/c3cc(C)cc(O)c3)n2)cc1 [Compound 25, (E)-N′-(3-hydroxy-5-methylbenzylidene)-6-(4-methoxyphenyl)pyrazine-2-carbohydrazide] | 500 to 1000 nM | > 1000 nM
23 | CCOc1ccc(-c2cncc(C(=O)N/N=C/c3cc(C)cc(O)c3)n2)cc1 [Compound 26, (E)-6-(4-ethoxyphenyl)-N′-(3-hydroxy-5-methylbenzylidene)pyrazine-2-carbohydrazide] | < 500 nM | > 1000 nM
24 | CCOc1ccc(-c2cncc(C(=O)N/N=C/c3cc(O)ccc3F)n2)cc1 [Compound 27, (E)-6-(4-ethoxyphenyl)-N′-(2-fluoro-5-hydroxybenzylidene)pyrazine-2-carbohydrazide] | 500 to 1000 nM | > 1000 nM
25 | CCOc1ccc(-c2cncc(C(=O)N/N=C/c3cc(OC)ccc3O)n2)cc1 [Compound 28, (E)-6-(4-ethoxyphenyl)-N′-(2-hydroxy-5-methoxybenzylidene)pyrazine-2-carbohydrazide] | < 500 nM | > 1000 nM
26 | CCOc1ccc(-c2cncc(C(=O)N/N=C/c3cncc(O)c3)n2)cc1 [Compound 29, (E)-6-(4-ethoxyphenyl)-N′-((5-hydroxypyridine-3-yl)methylene)pyrazine-2-carbohydrazide] | > 1000 nM | > 1000 nM
